One experiment concerns the target T1, CYP1A2 (Homo sapiens, UniProt P05177).
T1 construct: from tissue; host or cells: human liver microsomes
T1 sequence (P05177 1-516): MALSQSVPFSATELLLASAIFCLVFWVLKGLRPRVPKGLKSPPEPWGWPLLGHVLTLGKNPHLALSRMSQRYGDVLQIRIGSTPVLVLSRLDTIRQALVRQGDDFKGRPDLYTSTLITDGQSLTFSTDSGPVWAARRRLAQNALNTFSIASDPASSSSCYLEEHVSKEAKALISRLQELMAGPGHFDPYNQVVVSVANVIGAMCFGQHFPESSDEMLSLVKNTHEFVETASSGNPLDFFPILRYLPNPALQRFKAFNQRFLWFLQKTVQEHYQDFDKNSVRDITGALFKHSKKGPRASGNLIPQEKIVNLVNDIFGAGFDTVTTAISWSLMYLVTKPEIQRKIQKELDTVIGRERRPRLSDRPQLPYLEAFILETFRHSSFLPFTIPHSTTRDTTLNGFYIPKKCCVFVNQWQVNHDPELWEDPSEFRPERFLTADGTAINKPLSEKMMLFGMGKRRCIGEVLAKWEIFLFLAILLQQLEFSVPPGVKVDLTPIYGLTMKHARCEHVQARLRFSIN
The experiment in a line: CYP inhibition assay, human liver microsomes, substrate tacrine. It is filed as in vitro ADME. As to conditions: human liver microsomes, 10 min incubation, LC-MS/MS; read-out: CYP Inhibition Activity (IC50/nM) CYP1A2. As for the experimental part: (§1) 2 μL of test compound/Positive Inhibitor working solutions is then added to the reaction plate (2 μL/well). For control, 2 μL of Acetonitrile (ACN) containing DMSO (without inhibitor) is added to the reaction plate. 20 μL of substrate pool is added to all the wells of the reaction plate. The samples are mixed in a vortexer and pre-incubated at 37° C. for 20 min. The NADPH solution is pre-warmed at 37° C. for 5 min. 20 μL of pre-warmed NADPH solution is added to the reaction plate and then incubated at 37° C. for 10 min. The reaction is terminated by adding cold ACN (200 μL/well) to the reaction mixture and centrifuging at 4,000 rpm for 20 minutes. After centrifugation, supernatant is separated and analyzed by LC-MS/MS.
(§2) % inhibition and IC50 are calculated using Graphpad Prism software.

The target in the next experiment is SRPK1 (Homo sapiens, UniProt Q96SB4). The experiment in a line: In vitro SRPK1 assay (Kinase-Glo). Type of experiment: biochemical. On the technique in general: In Kinase-Glo more light means more ATP remaining.
The target of another experiment is T2, CYP2D6 (Homo sapiens, UniProt P10635).
T2 construct: from tissue; host or cells: human liver microsomes
Briefly: biochemical. It is filed as in vitro ADME. The method, then:
158 μL of Human Liver Microsomes working stock solution is added to a reaction plate (0.253 mg/mL, 158 μL/well). 2 μL of test compound/Positive Inhibitor working solutions is then added to the reaction plate (2 μL/well). For control, 2 μL of Acetonitrile (ACN) containing DMSO (without inhibitor) is added to the reaction plate. 20 μL of substrate pool is added to all the wells of the reaction plate. The samples are mixed in a vortexer and pre-incubated at 37° C. for 20 min. The NADPH solution is pre-warmed at 37° C. for 5 min. 20 μL of pre-warmed NADPH solution is added to the reaction plate and then incubated at 37° C. for 10 min. The reaction is terminated by adding cold ACN (200 μL/well) to the reaction mixture and centrifuging at 4,000 rpm for 20 minutes. After centrifugation, supernatant is separated and analyzed by LC-MS/MS.
as §2

A further experiment concerns the target T3, CYP2C19 (Homo sapiens, UniProt P33261).
T3 construct: from tissue; host or cells: human liver microsomes
Briefly: CYP inhibition assay, human liver microsomes, substrate S-mephenytoin. It is filed as in vitro ADME. As to conditions: human liver microsomes, 10 min incubation, LC-MS/MS; read-out: CYP Inhibition Activity (IC50/nM) CYP2C19. The method, then: as §1, §2
Background: Liver microsomes are vesicles of endoplasmic reticulum, rich in cytochrome P450 enzymes.

Another experiment has as its target T4, CYP3A4 (Homo sapiens, UniProt P08684).
T4 construct: from tissue; host or cells: human liver microsomes
The experiment in a line: CYP inhibition assay, human liver microsomes, substrate midazolam. Type of experiment: in vitro ADME. As to conditions: human liver microsomes, 10 min incubation, LC-MS/MS; read-out: CYP Inhibition Activity (IC50/nM) CYP3A4. As for the experimental part:
as §1, §2

A further experiment addresses T5, CYP2C9 (Homo sapiens, UniProt P11712).
T5 construct: from tissue; host or cells: human liver microsomes
The experiment in a line: CYP inhibition assay, human liver microsomes, substrate diclofenac. Type of experiment: in vitro ADME. As to conditions: human liver microsomes, 10 min incubation, LC-MS/MS; read-out: CYP Inhibition Activity (IC50/nM) CYP2C9. The method, then: as §1, §2

pIC50: −log10 of the molar value. A value given as a limit tells only on which side of the number the result lay.

T3 sequence (P33261 whole entry): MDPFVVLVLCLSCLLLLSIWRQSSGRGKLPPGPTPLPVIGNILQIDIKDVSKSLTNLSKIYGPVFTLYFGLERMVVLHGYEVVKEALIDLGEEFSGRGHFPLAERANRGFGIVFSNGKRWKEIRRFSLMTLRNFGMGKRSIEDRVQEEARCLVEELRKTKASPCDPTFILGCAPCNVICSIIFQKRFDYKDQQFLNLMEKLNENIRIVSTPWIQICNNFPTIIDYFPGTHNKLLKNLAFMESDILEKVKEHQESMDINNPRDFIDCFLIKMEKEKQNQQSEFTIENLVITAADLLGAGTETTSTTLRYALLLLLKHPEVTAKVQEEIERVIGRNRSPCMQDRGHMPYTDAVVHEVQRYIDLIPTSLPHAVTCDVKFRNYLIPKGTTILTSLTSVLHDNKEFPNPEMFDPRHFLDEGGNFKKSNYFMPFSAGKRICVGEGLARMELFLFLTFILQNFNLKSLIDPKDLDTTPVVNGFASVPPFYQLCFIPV
T4 sequence (P08684 whole entry): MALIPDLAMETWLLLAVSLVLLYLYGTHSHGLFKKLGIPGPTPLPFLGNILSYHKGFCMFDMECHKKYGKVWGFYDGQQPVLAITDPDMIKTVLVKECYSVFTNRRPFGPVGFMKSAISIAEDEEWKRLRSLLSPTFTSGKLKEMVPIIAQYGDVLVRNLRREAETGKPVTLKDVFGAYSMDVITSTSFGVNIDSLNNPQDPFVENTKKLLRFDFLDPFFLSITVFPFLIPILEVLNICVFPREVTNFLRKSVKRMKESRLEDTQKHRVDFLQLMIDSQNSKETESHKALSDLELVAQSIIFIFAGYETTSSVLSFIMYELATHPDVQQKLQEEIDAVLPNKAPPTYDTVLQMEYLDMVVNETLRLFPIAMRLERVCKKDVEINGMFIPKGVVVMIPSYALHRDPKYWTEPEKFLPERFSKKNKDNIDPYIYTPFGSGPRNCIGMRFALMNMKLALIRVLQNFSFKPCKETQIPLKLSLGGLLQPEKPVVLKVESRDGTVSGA
T2 sequence (P10635 whole entry): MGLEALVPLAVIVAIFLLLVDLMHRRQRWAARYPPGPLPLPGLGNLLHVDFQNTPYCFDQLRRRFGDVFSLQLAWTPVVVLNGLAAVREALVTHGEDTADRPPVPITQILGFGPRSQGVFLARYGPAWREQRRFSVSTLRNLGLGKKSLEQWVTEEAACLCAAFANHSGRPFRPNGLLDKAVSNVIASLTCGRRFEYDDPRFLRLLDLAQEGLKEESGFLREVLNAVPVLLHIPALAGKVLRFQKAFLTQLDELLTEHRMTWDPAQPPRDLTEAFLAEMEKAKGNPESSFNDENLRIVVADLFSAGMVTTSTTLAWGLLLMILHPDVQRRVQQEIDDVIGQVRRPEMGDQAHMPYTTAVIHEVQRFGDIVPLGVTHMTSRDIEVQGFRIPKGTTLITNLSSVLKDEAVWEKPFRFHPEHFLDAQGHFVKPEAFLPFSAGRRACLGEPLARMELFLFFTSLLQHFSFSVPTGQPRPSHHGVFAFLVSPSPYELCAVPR
T5 sequence (P11712 whole entry): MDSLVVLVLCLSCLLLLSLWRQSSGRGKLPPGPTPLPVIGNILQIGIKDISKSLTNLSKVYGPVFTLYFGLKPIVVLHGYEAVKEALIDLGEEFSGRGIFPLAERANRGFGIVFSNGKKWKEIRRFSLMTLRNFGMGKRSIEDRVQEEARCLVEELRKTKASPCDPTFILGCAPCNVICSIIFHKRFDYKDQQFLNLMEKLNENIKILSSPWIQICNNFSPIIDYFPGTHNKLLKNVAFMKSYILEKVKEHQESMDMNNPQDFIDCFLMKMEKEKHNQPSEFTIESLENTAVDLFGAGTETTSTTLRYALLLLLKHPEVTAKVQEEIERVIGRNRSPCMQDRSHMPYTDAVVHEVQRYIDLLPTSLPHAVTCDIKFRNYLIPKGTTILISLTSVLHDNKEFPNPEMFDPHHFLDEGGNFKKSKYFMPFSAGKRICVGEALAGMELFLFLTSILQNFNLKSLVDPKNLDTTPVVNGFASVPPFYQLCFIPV
Chain of SRPK1 (Q96SB4 whole entry, species assumed): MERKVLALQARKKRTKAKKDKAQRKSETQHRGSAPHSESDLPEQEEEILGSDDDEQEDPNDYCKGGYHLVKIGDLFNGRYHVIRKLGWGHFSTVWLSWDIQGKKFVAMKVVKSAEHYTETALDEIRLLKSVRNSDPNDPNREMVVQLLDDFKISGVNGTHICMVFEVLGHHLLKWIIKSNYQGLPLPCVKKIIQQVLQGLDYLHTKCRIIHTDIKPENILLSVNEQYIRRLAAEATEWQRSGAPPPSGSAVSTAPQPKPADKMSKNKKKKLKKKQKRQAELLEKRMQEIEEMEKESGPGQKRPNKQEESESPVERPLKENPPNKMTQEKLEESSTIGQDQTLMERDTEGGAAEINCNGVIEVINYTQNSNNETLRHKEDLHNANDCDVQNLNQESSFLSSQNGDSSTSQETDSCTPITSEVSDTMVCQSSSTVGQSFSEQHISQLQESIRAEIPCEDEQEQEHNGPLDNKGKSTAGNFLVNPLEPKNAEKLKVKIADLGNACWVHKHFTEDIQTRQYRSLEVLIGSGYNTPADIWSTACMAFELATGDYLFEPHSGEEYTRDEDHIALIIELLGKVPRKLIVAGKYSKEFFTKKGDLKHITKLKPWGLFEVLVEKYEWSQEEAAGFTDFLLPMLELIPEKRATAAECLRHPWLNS

By pIC50 is commonly meant −log10 of the IC50, conventionally taken in molar units. Higher therefore signals a low IC50. For the compound `CC1(O)CCN(c2ccc(Cl)cc2NC(=O)c2ccc(-c3ccncc3)o2)CC1` [Example 5, N-(5-chloro-2-(4-hydroxy-4-methylpiperidin-1-yl)phenyl)-5-(pyridin-4-yl)furan-2-carboxamide], the IC50 on CYP1A2 came out at 8130 nM; against SRPK1, 0.5 nM; on CYP2C19 it was 2180 nM; at CYP3A4 it was 670 nM; at CYP2C9, 660 nM. Further, the pIC50 on CYP2D6 is 5.29.
In the case of `CC1(O)CCN(c2ccc(C3CC3)cc2NC(=O)c2ccc(-c3ccncc3)o2)CC1` [Example 6, N-(5-cyclopropyl-2-(4-hydroxy-4-methylpiperidin-1-yl)phenyl)-5-(pyridin-4-yl)furan-2-carboxamide], the IC50 came out at 11700 nM at CYP1A2; 1.7 nM against SRPK1; 1010 nM at CYP2C19; 1050 nM at CYP3A4; 790 nM on CYP2C9. In addition, the pIC50 against CYP2D6 is 5.32.
With `CC1(O)CCN(c2ccc(C(F)F)cc2NC(=O)c2ccc(-c3ccncc3)o2)CC1` [Example 7, N-(5-(difluoromethyl)-2-(4-hydroxy-4-methyl-piperidin-1-yl)phenyl)-5-(pyridin-4-yl)furan-2-carboxamide], the IC50 was determined as 4000 nM on CYP1A2; 1.7 nM against SRPK1; 1400 nM on CYP2C19; 1200 nM at CYP3A4; 600 nM on CYP2C9. Also, the pIC50 on CYP2D6 was 5.64.
On to `Cc1ccc(N2CCC(C)(O)CC2)c(NC(=O)c2ccc(-c3ccncc3)o2)c1` [Example 8, N-(2-(4-hydroxy-4-methylpiperidin-1-yl)-5-methylphenyl)-5-(pyridin-4-yl)furan-2-carboxamide], for which the IC50 at CYP1A2 is 11100 nM; against SRPK1 it was 14.4 nM; on CYP2C19, 2900 nM; at CYP3A4 it was 1700 nM; on CYP2C9 it was 1100 nM. Besides, the pIC50 against CYP2D6 is 5.21.
As to `COc1ccc(N2CCC(C)(O)CC2)c(NC(=O)c2ccc(-c3ccncc3)o2)c1` [Example 9, N-(2-(4-hydroxy-4-methylpiperidin-1-yl)-5-methoxyphenyl)-5-(pyridin-4-yl)furan-2-carboxamide], the IC50 at CYP1A2 stood at 4990 nM; at SRPK1, 4.4 nM; at CYP2C19, 890 nM; at CYP3A4, 360 nM; at CYP2C9, 350 nM. The pIC50 against CYP2D6 was 5.29.
`CC1(O)CCN(c2ccc(OC(F)(F)F)cc2NC(=O)c2ccc(-c3ccncc3)o2)CC1` [Example 10, N-(2-(4-hydroxy-4-methylpiperidin-1-yl)-5-(trifluoromethoxy)phenyl)-5-(pyridin-4-yl)furan-2-carboxamide]: the IC50 at CYP1A2 was 14400 nM; on SRPK1, 6 nM; on CYP2C19, 2670 nM; at CYP3A4 it was 3780 nM; on CYP2C9 it was 1770 nM. In addition, the pIC50 at CYP2D6 is 5.27.
`CC1(O)CCN(c2ccc(C(F)(F)F)cc2NC(=O)c2ccc(C3CCOCC3)o2)CC1` [Example 11, N-(2-(4-hydroxy-4-methylpiperidin-1-yl)-5-(trifluoromethyl)-phenyl)-5-(tetrahydro-2H-pyran-4-yl)furan-2-carboxamide]: the IC50 amounted to 17900 nM at CYP1A2; 3 nM on SRPK1; 10200 nM on CYP2C19; 16300 nM on CYP3A4; 9310 nM at CYP2C9. The pIC50 at CYP2D6 was 4.81.
Take `Cc1ccc(N2CCC(C)(O)CC2)c(NC(=O)c2ccc(C3CCOCC3)o2)c1` [Example 13, N-(2-(4-hydroxy-4-methylpiperidin-1-yl)-5-methylphenyl)-5-(tetrahydro-2H-pyran-4-yl)furan-2-carboxamide]: the IC50 was greater than 30000 nM on CYP1A2; 17.4 nM on SRPK1; 15100 nM on CYP2C19; 23200 nM at CYP3A4; 7600 nM at CYP2C9. The compound also showed a pIC50 against CYP2D6 of less than 4.52.
Regarding `CC1(O)CCN(c2ccc(C(F)F)cc2NC(=O)c2ccc(C3CCOCC3)o2)CC1` [Example 14, N-(5-(difluoromethyl)-2-(4-hydroxy-4-methyl-piperidin-1-yl)phenyl)-5-(tetrahydro-2H-pyran-4-yl)furan-2-carboxamide], the IC50 at CYP1A2 is 19000 nM; at SRPK1, 7.3 nM; at CYP2C19, 7700 nM; at CYP3A4, 7700 nM; at CYP2C9, 3800 nM. The same compound gave a negative logarithm of the IC50 (pIC50) on CYP2D6 of 4.59.
With `COc1ccc(N2CCC(C)(O)CC2)c(NC(=O)c2ccc(C3CCOCC3)o2)c1` [Example 15, N-(2-(4-hydroxy-4-methylpiperidin-1-yl)-5-methoxyphenyl)-5-(tetrahydro-2H-pyran-4-yl)furan-2-carboxamide], the IC50 at CYP1A2 is 6270 nM; at SRPK1, 5.2 nM; at CYP2C19 it was 7690 nM; at CYP3A4, 10600 nM; at CYP2C9, 2970 nM. Moreover, the pIC50 on CYP2D6 was 4.72.
Regarding `CC1(O)CCN(c2ccc(OC(F)(F)F)cc2NC(=O)c2ccc(C3CCOCC3)o2)CC1` [Example 16, N-(2-(4-hydroxy-4-methylpiperidin-1-yl)-5-(trifluoromethoxy)phenyl)-5-(tetrahydro-2H-pyran-4-yl)furan-2-carboxamide], the IC50 stood at 26700 nM on CYP1A2; 16 nM on SRPK1; 9550 nM on CYP2C19; 27300 nM on CYP3A4; 5690 nM at CYP2C9. Further, the pIC50 against CYP2D6 was 4.98.
Take `CC1(O)CCN(c2ccc(C3CC3)cc2NC(=O)c2ccc(C3CCOCC3)o2)CC1` [Example 17, N-(5-cyclopropyl-2-(4-hydroxy-4-methylpiperidin-1-yl)phenyl)-5-(tetrahydro-2H-pyran-4-yl)furan-2-carboxamide]: the IC50 is greater than 30000 nM on CYP1A2; 2 nM at SRPK1; 9570 nM at CYP2C19; 15200 nM at CYP3A4; 3770 nM on CYP2C9. The compound also had a pIC50 at CYP2D6 of less than 4.52.
`COC1(C)CCN(c2ccc(C(F)(F)F)cc2NC(=O)c2ccc(C3CCOCC3)o2)CC1` [Example 18, N-(2-(4-methoxy-4-methylpiperidin-1-yl)-5-(trifluoromethyl)-phenyl)-5-(tetrahydro-2H-pyran-4-yl)furan-2-carboxamide]: the IC50 on CYP1A2 was greater than 30000 nM; against SRPK1, 54 nM; on CYP2C19, 4910 nM; on CYP3A4, 9800 nM; at CYP2C9, 5160 nM. For the same compound, the pIC50 against CYP2D6 is 4.80.
Turning to `O=C(Nc1cc(C(F)(F)F)ccc1N1CCC(O)(Cc2ccccc2)CC1)c1ccc(C2CCOCC2)o1` [Example 19], the IC50 worked out at 15300 nM at CYP1A2; 39 nM on SRPK1; 12300 nM at CYP2C19; 18800 nM on CYP3A4; 12700 nM at CYP2C9. The pIC50 against CYP2D6 was less than 4.52.
Turning to `CCC1(O)CCN(c2ccc(C(F)(F)F)cc2NC(=O)c2ccc(C3CCOCC3)o2)CC1` [Example 20, N-(2-(4-ethyl-4-hydroxypiperidin-1-yl)-5-(trifluoromethyl)phenyl)-5-(tetrahydro-2H-pyran-4-yl)furan-2-carboxamide], the IC50 at CYP1A2 was greater than 30000 nM; at SRPK1, 6 nM; at CYP2C19, greater than 30000 nM; on CYP3A4, greater than 30000 nM; at CYP2C9, greater than 30000 nM. Also, on CYP2D6, the negative-log IC50 (pIC50) is less than 4.52.

The values are drawn from patent publication US11420969B2 (Exonate Limited, priority 2017, dated 2022).
